From US20100292150A1, “Treatment of Menorrhagia with Aromatase Inhibitor” (MEDITRINA PHARMACEUTICALS, INC., priority 2007, published 2010)

Columns and labels:
[1] = marketed in the US for long-term chronic breast cancer therapy (five years and beyond); cited from earlier work
[2] = test system: healthy premenopausal women; conditions: 5, 10, 15 and 20 mg, single and multiple dose; 26 healthy premenopausal women; cited from earlier work
Women with menorrhagia [3] = experiment: Safety profile of anastrozole compared to placebo in the same study; assay type: in vivo; conditions: 26 days of anastrozole
Description: (§1) Women with menorrhagia were enrolled in the study and divided into two groups—one as Treatment Group and the other as Control Group. Administering of anastrozole to the women in the Treatment Group started on the second day of the menstrual cycle and lasted for 26 days. In some cases, the administration started on the third day due to site scheduling limitations. Conversely, the women in the Control Group received placebo during the same period. Data on the mean menstrual bleeding severity score were recorded on a daily basis according to the following categories of vaginal bleeding: 0=none; 1=spotting; 2=mild bleeding; 3=moderate bleeding; and 4=heavy bleeding.
The observation above was contrasted by women who received anastrozole for 26 consecutive days (Treatment Group). On Study Day 1, which corresponds to Cycle Day 2 as with the Control Group, the women were administered 20 mg of anastrozole in the clinic office and then […] for the remaining 25 days.

Women with menorrhagia [4] = experiment: Daily menstrual bleeding severity score in women receiving anastrozole for 26 days vs placebo; assay type: in vivo
Description: as §1
In the Control Group, within 6 days, the average score was down to about zero. Over the next 20 days, the fluctuations in menstrual bleeding severity would also be considered typical in that some women experience “breakthrough bleeding” which was reflected in the deviation from zero that would be expected in models of normal cycles, but was not reflected in reality. This was particularly notable during the second half of the menstrual cycle.
The observation above was contrasted by women who received anastrozole for 26 consecutive days (Treatment Group). […]

## C=C1C[C@@H]2[C@H](CC[C@]3(C)C(=O)CC[C@@H]23)[C@@]2(C)C=CC(=O)C=C12 [exemestane]
[1]
  general safety: generally accepted as safe drugs

## CC(C)(C#N)c1cc(Cn2cncn2)cc(C(C)(C)C#N)c1 [anastrozole]
[2]
  adverse events: no severe, serious, or otherwise significant adverse events
Women with menorrhagia [3]
  safety liabilities: does not appear to have any significant safety liabilities
Women with menorrhagia [4]; 20 mg on Study Day 1, then 10 mg/day for remaining 25 days, contrasted with placebo
  reported bleeding over the remaining days of treatment: no bleeding or spotting reported until the very end of the cycle
Women with menorrhagia [4]; score 0=none to 4=heavy bleeding, Study Day 1 = Cycle Day 2, 20 mg anastrozole on day 1
  mean bleeding severity at the start of the treatment interval: ~3
[1]
  general safety: generally accepted as safe drugs

## N#Cc1ccc(C(c2ccc(C#N)cc2)n2cncn2)cc1 [letrozole]
[1]
  general safety: generally accepted as safe drugs
